# Reference: ChEMBL document CHEMBL2029212, “Discovery of 1,4-disubstituted 3-cyano-2-pyridones: a new class of positive allosteric modulators of the metabotropic glutamate 2 receptor” (J Med Chem, 2012)
# Key:
# [1] = molecular target: T1, Metabotropic glutamate receptor 2 (Homo sapiens, UniProt Q14416); experiment: Positive allosteric modulation of human mGlu2 receptor expressed in CHO cells assessed as glutamate-induced [35S]GTPgammaS binding after 30 mins by liquid scintillation counting; format: functional, cell-based
# Target sequence in this assay (Q14416 whole entry): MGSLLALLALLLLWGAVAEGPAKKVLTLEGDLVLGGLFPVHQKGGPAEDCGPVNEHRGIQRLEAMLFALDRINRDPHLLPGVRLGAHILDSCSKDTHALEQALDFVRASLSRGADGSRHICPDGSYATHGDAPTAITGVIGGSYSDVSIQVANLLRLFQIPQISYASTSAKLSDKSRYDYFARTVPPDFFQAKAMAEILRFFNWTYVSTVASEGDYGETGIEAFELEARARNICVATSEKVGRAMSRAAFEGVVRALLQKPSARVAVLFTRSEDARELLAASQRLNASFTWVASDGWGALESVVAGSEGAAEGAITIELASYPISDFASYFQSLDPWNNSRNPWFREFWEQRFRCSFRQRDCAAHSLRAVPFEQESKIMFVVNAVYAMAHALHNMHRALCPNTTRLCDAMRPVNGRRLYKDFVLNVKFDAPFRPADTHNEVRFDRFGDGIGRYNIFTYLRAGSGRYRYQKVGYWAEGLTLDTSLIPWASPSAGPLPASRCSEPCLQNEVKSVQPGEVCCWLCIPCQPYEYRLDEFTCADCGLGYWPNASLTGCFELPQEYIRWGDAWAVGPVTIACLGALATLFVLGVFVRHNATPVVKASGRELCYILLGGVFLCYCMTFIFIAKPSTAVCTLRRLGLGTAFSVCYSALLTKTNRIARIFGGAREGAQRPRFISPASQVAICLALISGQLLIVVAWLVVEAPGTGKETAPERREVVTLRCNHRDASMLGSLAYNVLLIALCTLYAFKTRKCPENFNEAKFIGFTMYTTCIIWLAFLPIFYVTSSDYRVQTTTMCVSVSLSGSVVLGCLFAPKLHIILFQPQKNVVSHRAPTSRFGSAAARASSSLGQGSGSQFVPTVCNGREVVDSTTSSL
# [2] = Drug metabolism in human liver microsomes at 5 uM after 15 mins; format: ADME, Microsome; settings: read-out: Drug metabolism
# [3] = Drug metabolism in rat liver microsomes at 5 uM after 15 mins; format: ADME, Microsome; settings: read-out: Drug metabolism
# [4] = molecular target: T1, Metabotropic glutamate receptor 2; experiment: Positive allosteric modulation of human mGlu2 receptor expressed in CHO cells assessed as glutamate-induced [35S]GTPgammaS binding after 30 mins by liquid scintillation counting relative to glutamate; format: functional, cell-based
# Target sequence in this assay (Q14416 19-872 limits assumed): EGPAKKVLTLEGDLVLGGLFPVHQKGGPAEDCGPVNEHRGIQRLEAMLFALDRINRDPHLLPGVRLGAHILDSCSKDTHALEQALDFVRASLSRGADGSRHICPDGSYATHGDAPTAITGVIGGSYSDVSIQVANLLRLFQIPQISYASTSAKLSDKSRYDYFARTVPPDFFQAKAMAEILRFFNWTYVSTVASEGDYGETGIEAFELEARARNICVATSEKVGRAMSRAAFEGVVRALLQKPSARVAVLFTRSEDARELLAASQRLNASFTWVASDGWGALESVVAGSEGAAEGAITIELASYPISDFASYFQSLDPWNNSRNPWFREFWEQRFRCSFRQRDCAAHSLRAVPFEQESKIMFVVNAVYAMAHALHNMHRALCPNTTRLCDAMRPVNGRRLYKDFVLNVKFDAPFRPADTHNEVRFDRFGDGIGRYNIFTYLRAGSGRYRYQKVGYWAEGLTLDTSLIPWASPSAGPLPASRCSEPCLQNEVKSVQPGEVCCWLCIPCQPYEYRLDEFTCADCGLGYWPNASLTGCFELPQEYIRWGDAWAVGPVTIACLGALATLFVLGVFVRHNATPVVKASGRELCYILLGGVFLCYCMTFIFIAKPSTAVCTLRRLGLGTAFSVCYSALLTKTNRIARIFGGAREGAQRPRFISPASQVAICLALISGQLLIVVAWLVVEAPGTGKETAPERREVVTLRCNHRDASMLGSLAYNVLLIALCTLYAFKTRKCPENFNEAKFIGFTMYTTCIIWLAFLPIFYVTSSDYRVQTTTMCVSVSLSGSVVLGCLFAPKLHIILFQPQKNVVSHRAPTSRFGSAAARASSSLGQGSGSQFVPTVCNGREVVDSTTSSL
# hERG = hERG (Homo sapiens, UniProt Q12809); experiment: Inhibition of human ERG expressed in HEK293 cells assessed as whole cell current at 3 uM after 5 mins by automated patch-clamp assay relative to control; format: cell-based; settings: HEK293 cells expressing hERG
# [5] = Drug level in Swiss mouse brain at 10 mg/kg, sc after 1 hr; format: ADME, organism-based; parameters: dose 10 mg/kg, route subcutaneous; settings: read-out: Drug uptake
# [6] = Drug level in Swiss mouse brain at 10 mg/kg, sc after 1.5 hrs; format: ADME, organism-based; parameters: dose 10 mg/kg, route subcutaneous; settings: read-out: Drug uptake
# [7] = Drug level in Swiss mouse brain at 10 mg/kg, sc after 0.5 hrs; format: ADME, organism-based; parameters: dose 10 mg/kg, route subcutaneous; settings: read-out: Drug uptake
# [8] = Ratio of drug level in brain to plasma in Swiss mouse at 10 mg/kg, sc after 1 hr; format: ADME, organism-based; parameters: dose 10 mg/kg, route subcutaneous; settings: read-out: BPR
# Sequence of hERG (Q12809 whole entry): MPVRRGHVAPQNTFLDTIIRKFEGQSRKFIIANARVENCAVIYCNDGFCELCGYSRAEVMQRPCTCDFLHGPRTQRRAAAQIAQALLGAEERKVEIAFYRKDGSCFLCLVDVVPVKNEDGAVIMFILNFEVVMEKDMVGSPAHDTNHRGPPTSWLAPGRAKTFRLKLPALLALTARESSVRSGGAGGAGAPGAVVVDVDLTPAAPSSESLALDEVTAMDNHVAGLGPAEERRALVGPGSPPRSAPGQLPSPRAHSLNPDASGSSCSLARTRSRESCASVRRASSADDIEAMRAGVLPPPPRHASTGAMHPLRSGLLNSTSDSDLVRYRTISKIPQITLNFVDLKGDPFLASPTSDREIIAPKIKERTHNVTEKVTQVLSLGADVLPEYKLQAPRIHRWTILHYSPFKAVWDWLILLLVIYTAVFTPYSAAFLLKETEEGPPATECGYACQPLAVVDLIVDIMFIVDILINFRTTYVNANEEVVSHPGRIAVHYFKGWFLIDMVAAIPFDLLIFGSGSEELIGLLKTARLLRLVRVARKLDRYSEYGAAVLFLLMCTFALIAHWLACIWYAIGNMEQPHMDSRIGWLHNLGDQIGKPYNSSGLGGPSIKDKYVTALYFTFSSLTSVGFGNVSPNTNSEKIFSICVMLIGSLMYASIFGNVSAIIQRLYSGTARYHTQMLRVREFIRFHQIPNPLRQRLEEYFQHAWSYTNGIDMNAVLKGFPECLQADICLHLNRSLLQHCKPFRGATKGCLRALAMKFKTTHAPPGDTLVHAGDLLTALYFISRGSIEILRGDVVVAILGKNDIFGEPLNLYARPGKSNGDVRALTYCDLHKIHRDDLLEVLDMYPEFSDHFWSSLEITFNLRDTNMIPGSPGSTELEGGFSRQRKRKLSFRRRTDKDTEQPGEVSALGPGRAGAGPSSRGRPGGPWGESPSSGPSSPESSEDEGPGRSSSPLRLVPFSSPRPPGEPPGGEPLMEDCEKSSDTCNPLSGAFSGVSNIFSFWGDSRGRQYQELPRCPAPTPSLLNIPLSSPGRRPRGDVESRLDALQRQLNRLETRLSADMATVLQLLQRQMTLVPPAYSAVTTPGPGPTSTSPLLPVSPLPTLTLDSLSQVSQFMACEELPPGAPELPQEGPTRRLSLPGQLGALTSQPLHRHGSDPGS
SMILES,EC50 [1] [nM],"metabolised at 0.25 h, 5 µM [2] [%]","metabolised at 0.25 h, 5 µM [3] [%]",Emax [4] [%],concentration at 1 h [5] [ng/g],concentration at 1.5 h [6] [ng/g],concentration at 0.5 h [7] [ng/g],Kp at 1 h [8],"inhibition at 5 min, 3 µM (hERG) [%]"
CCCCn1ccc(-c2ccc(Oc3cc(C)nc(C)c3)c(F)c2)c(C#N)c1=O,372,16,41,217,,,,,71
CCCCn1ccc(-c2ccc(Oc3cccnc3C)cc2)c(C#N)c1=O,347,30,50,228,294,100,822,0.3,31
CCCCn1ccc(-c2ccc(Oc3ccnc(C)c3)cc2F)c(C#N)c1=O,,31,50,232,,,,,52
Cc1cc(Oc2ccc(-c3ccn(CC4CC4)c(=O)c3C#N)cc2)ccn1,832,9,19,199,,,,,
COc1ccc(-c2ccn(CCC(C)C)c(=O)c2C#N)cc1,1150,,,160,,,,,
CC(C)CCn1ccc(-c2ccc(N3CCOCC3)cc2)c(C#N)c1=O,2040,38,48,236,,,,,
Cc1ncccc1Oc1ccc(-c2ccn(CC3CC3)c(=O)c2C#N)cc1,1070,36,39,155,,,,,
COc1cccc(-c2ccn(CCC(C)C)c(=O)c2C#N)c1,,74,,176,,,,,
CC(C)CCn1ccc(-c2ccc(OCC3CC3)cc2)c(C#N)c1=O,290,17,16,192,,,,,
CNc1ccc(-c2ccn(CCC(C)C)c(=O)c2C#N)cc1,460,,,186,,,,,

# Further compounds by falling EC50 [1], results first:
EC50 [1] [nM],"metabolised at 0.25 h, 5 µM [2] [%]","metabolised at 0.25 h, 5 µM [3] [%]",Emax [4] [%],concentration at 1 h [5] [ng/g],concentration at 1.5 h [6] [ng/g],concentration at 0.5 h [7] [ng/g],Kp at 1 h [8],SMILES,"inhibition at 5 min, 3 µM (hERG) [%]"
275,57,45,256,,,,,Cc1ncccc1Oc1ccc(-c2ccn(CCC(C)C)c(=O)c2C#N)cc1,36
263,35,42,183,,,,,Cc1ccc(Oc2ccc(-c3ccn(CC4CC4)c(=O)c3C#N)cc2)c(C)n1,68
230,37,22,180,,,,,Cc1ncccc1Oc1ccc(-c2ccn(CC3CC3)c(=O)c2C#N)cc1Cl,75
166,35,51,245,,,,,CCCCn1ccc(-c2ccc(Oc3ccnc(C)c3)c(Cl)c2)c(C#N)c1=O,
138,51,60,239,,,,,CCCCn1ccc(-c2ccc(Oc3ccc(C)nc3C)cc2)c(C#N)c1=O,
126,36,44,233,,,,,Cc1cc(Oc2ccc(-c3ccn(CC4CCC4)c(=O)c3C#N)cc2)ccn1,80
30,34,50,231,830,281,1480,0.4,CCCCn1ccc(-c2ccc(Oc3ccc(C)nc3C)c(Cl)c2)c(C#N)c1=O,80
